The source made the active and inactive calls. No rule for the calls is given here. Bounds are passed on as bounds.

One experiment concerns CqsS sensor histidine kinase (Vibrio cholerae). Nature of the experiment: CqsS histidine kinase agonist, Vibrio cholerae WN1103 delta luxQ, luciferase luminescence, confirmatory dose (AID 624275). The settings on record: V. cholerae WN1103 delta luxQ, 6 h.
In the case of `COc1ccccc1NC(=O)COC(=O)c1oc2ccccc2c1C`, the AC40 is 2.01 µM.

Turning to `Cc1ccc(OCCNC(=O)c2cccc(C)c2)cc1`, the AC40 was 0.309 µM.

Turning to `COc1ccccc1NC(=O)COC(=O)c1ccc(C)cc1`, the AC40 was 2.24 µM.

For `COc1ccccc1NC(=O)COC(=O)c1cc2c(s1)CCC2`, the AC40 is 0.184 µM.

`O=C(Cc1ccc(-c2ccccc2)cc1)NC1CCCC1`: the AC40 was 0.118 µM.

Turning to `CCCn1nnnc1NCc1ccc(N(CC)CC)cc1`, the AC40 is 0.0901 µM.

`Cc1c(Cl)cccc1-n1cnc(=O)c2ccccc21`: the AC40 is > 35 µM (inactive).

With `Cc1ccc2cc3c(NC(=O)c4ccco4)nn(C)c3nc2c1`, the AC40 is 4.22 µM.

With `O=c1ncn(-c2cccc(Cl)c2)c2ccccc12`, the AC40 was 0.0294 µM.

Regarding `CCCn1nnnc1NCc1ccc(N2CCCC2)cc1`, the AC40 is 0.0292 µM.

`CCC(C)NC(=O)Cc1ccc(-c2ccccc2)cc1` (stereo not given): the AC40 was 1.92 µM.

As for `CCOc1ccc(Nc2ccc3nonc3c2[N+](=O)[O-])cc1`, the AC40 was 0.596 µM.

For the compound `COc1ccc(Cl)cc1NC(=O)COC(=O)c1ccc(C)o1`, the AC40 is 0.489 µM.

For `CCn1nnnc1NCc1ccc(N2CCCC2)cc1`, the AC40 was 0.00571 µM.

Turning to `O=C(Nc1nnc(-c2ccc3c(c2)OCCO3)o1)C1CCCCC1`, the AC40 was 2.07 µM.

Regarding `CCCn1nnnc1NCc1ccc(C(C)C)cc1`, the AC40 was 0.0288 µM.

The same experiment, now with this note: V. cholerae WN1103 delta luxQ, 6 h, at 35 µM (top of the series).
Turning to `CCn1nnc(NCc2ccc(C)cc2)n1`, the activation is 0.153% (inactive).

Consider `CCCn1nnnc1NCc1ccccc1Cl`, for which the activation was 0.419% (inactive).

As to `Cc1ccc(CC(=O)NC2CCCC2)cc1`, the activation is 10.3% (inactive).

With `CCn1c(CC(=O)Nc2cccc(Cl)c2Cl)nnc1SCCOc1ccc(OC)cc1`, the activation is 0.37% (inactive).

The values are drawn from PubChem BioAssay AID624275 (Broad Institute, 2012).
